Measurements taken from patent publication US8946478B2, “Benzamide derivative with anticancer activity and preparation method and use thereof” (Zhejiang Hisun Pharmaceutical Co., Ltd., priority 2010, dated 2015).

Test system: 18 tumor cell strains
Assay: In vitro efficacy screening, summary over the tumor cell strains
Format: cell-based, human

C#Cc1ccc(C(N)=O)cc1[N+](=O)[O-] [Compound I-1, 4-ethynyl-3-nitrobenzamide]
efficacy relative to the positive drug BSI-201 (in the measured 18 tumor cell strains): 10 times | inhibitory effects on tumor cell proliferation (in words) (in vitro screening, BSI-201 as positive drug): have inhibitory effects on tumor cell proliferation
